Where two headings read alike, the source gives them in different places.
How the values were obtained:
[1] = Test 9 (3): paired comparison test of sweetness, 50% starch syrup sample; format: in vivo; conditions: 50% starch syrup samples
Method: (§4) In the following Test 9, sensory evaluation was performed by a panel of three experts in the same paired comparison test as in Tests 3, 5, and 7.
Samples were prepared by adding ERG to a 50% starch syrup sample of a highly saccharified reduced starch syrup rich in monosaccharide alcohols and disaccharide alcohols (SE 600, Bussan Food Science Co., Ltd.) to the ERG concentrations shown in Table 14 (ERG0 to 10). Pairs combining a control 50% starch syrup sample and a 50% starch syrup sample containing ERG at each concentration were presented, and the panel evaluated which sample of the presented pair was perceived to be sweeter by a paired comparison test.

[2] = format: in vivo; conditions: amazake
Method: (§1) Evaluation results of sweetness of test product compared with control • ∘: Sweetness was enhanced compared to the control. • ◇: Sweetness was similar to that of the control.
1,250 g of white rice was soaked in water overnight, transferred to a colander, and drained for 2 hours. Thereafter, the rice was wrapped in a Tetoron cloth and steamed at 100°C for 40 minutes. The steamed rice was cooled to 45°C, and a seed koji was inoculated. The rice was wrapped in a Pylen cloth, and koji-making was started under the conditions of 35°C and 95% humidity. 19 hours after the start of koji-making, the rice koji was loosened and wrapped again in the Pylen cloth. When the product temperature reached 40°C, the Pylen cloth was spread and the rice koji was leveled. After another 40 hours, the rice koji was well loosened and left to stand again. After 42 hours, the koji was taken out. […]
The sweetness of the amazake was sensorially evaluated by an expert panel consisting of five trained sweetness-sensitive subjects.
Pairs combining amazake containing ERG at different concentrations shown in Table 19 (ERG12 to 345) were presented to the expert panel of five, and the panelists evaluated which sample of the presented pair was perceived to be sweeter by a paired comparison test.

[3] = Test 9 (4): paired comparison test of sweetness, 50% oligosaccharide sample; format: in vivo; conditions: 50% oligosaccharide samples
Method: as §4
Samples were prepared by adding ERG to a 50% oligosaccharide sample of an oligosaccharide (Fuji Oligo #450, Nihon Shokuhin Kako Co., Ltd.) to the ERG concentrations shown in Table 15 (ERG0 to 10). Pairs combining a control 50% oligosaccharide sample and a 50% oligosaccharide sample containing ERG at each concentration were presented, and the panel evaluated which sample of the presented pair was perceived to be sweeter by a paired comparison test.

[4] = Test 5: sensory evaluation, selection of glucose sample of equivalent sweetness; format: in vivo; conditions: 15% glucose sample containing 60 ppm ERG
Method: Glucose was added to pure water to prepare glucose samples having six concentrations of 0%, 13%, 14%, 15%, 16%, and 17%; and as a seventh sample, a sample in which ergothioneine was added to 15% glucose to a final concentration of 60 ppm was prepared.
(§2) Sweetness was sensorially evaluated by the same expert panel of five trained sweetness-sensitive subjects as in Test 1. The panel of five experts was asked to select a sample having an equivalent sweetness from among the 1st to 6th glucose samples (the concentration was not disclosed to the panel) regarding the sweetness of the 7th 15% glucose sample containing 60 ppm ERG.

[5] = Test 9 (5): paired comparison test of sweetness, 10% aspartame sample; format: in vivo; conditions: 10% aspartame samples
Method: as §4
Samples were prepared by adding ERG to a 10% aspartame sample of aspartame (Pal Sweet Slim Up Sugar, Ajinomoto Co., Inc.) to the ERG concentrations shown in Table 16 (ERG0 to 20). Pairs combining a control 10% aspartame sample and a 10% aspartame sample containing ERG at each concentration were presented, and the panel evaluated which sample of the presented pair was perceived to be sweeter by a paired comparison test.

[6] = format: in vivo; conditions: specially selected whole soybean soy sauce
Method: as §1
Soy sauces were prepared by adding ergothioneine to a commercially available specially selected whole soybean soy sauce (Kikkoman Corporation) to addition concentrations of 10 ppm, 20 ppm, and 50 ppm (EGR10, 20, 50).
(§3) A drinking test by a panel of three experts was conducted on the soy sauce to which ERG was added at each concentration (the concentration was not disclosed to the panel), using a soy sauce to which no ergothioneine was added (ERG0) as a control, and the sweetness was sensorially evaluated by a paired comparison test.

[7] = format: in vivo; conditions: ERG added to water to a final concentration of 60 ppm; all the five panelists
Method: In the same manner as in Test 1, sucrose samples having six concentrations of 0%, 1%, 1.5%, 2%, 2.5%, and 3%, and as a seventh sample, a sample in which ergothioneine was added to water to a final concentration of 60 ppm were prepared. A drinking test by the same expert panel of five as in Test 1 was conducted, and after tasting each sample and before tasting the next sample, the mouth was completely rinsed with water at room temperature, and sweetness was sensorially evaluated. The panel of five experts was asked to select a sample having an equivalent sweetness from among the 1st to 6th sucrose samples (the concentration was not disclosed to the panel) regarding the sweetness of the 7th sample.

[8] = format: in vivo; conditions: 50% glucose solution
Method: as §1
Samples ERG0 to 900 were prepared by adding ergothioneine to 50% glucose samples to final concentrations of 0.5 ppm, 1 ppm, 3 ppm, 5 ppm, 10 ppm, 20 ppm, 60 ppm, 100 ppm, 400 ppm, and 900 ppm (Table 4).
Pairs combining a control 50% glucose sample to which ergothioneine was not added and a 50% glucose sample containing ergothioneine at each concentration were presented to the expert panel of four, and the panel evaluated which sample of the presented pair was perceived to be sweeter by a paired comparison test.

[9] = Test 7: sensory evaluation, selection of fructose sample of equivalent sweetness; format: in vivo; conditions: 5% fructose sample containing 60 ppm ERG
Method: Fructose was added to pure water to prepare fructose samples having six concentrations of 0%, 4.5%, 5%, 5.25%, 5.5%, and 6%; and as a seventh sample, a sample in which ergothioneine was added to 5% fructose to a final concentration of 60 ppm was prepared.
as §2, with “fructose” for “glucose”, “5% fructose” for “15% glucose”

[10] = Test 9 (2): paired comparison test of sweetness, 50% liquid sugar sample; format: in vivo; conditions: 50% liquid sugar samples
Method: as §4
Samples were prepared by adding ERG to a 50% liquid sugar sample of an isomerized sugar containing 55% or more of fructose (New Fructo 55 (NF55), Showa Sangyo Co., Ltd.) to the ERG concentrations shown in Table 13 (ERG0 to 20). Pairs combining a control 50% liquid sugar sample and a 50% liquid sugar sample containing ERG at each concentration were presented, and the panel evaluated which sample of the presented pair was perceived to be sweeter by a paired comparison test.

[11] = Test 1: sensory evaluation by expert panel, selection of sucrose sample of equivalent sweetness; format: in vivo; conditions: 2% sucrose sample containing 60 ppm ERG; all the five panelists
Method: Sucrose was added to pure water to prepare sucrose samples having six concentrations of 0%, 1%, 1.5%, 2%, 2.5%, and 3%; and as a seventh sample, a sample in which purified ergothioneine (purity: 99.5% or more, Tetrahedron) was added to 2% sucrose to a final concentration of 60 ppm was prepared.
The sweetness was evaluated by a sensory evaluation by an expert panel consisting of five trained sweetness-sensitive subjects. The panel of five experts was asked to select a sample having an equivalent sweetness from among the 1st to 6th sucrose samples (the concentration was not disclosed to the panel) regarding the sweetness of the 7th 2% sucrose sample containing 60 ppm ERG. After tasting each sample and before tasting the next sample, the mouth was completely rinsed with water at room temperature.

[12] = format: in vivo; conditions: milk
Method: as §1
Samples of milk (EGR0.5 to 20) were prepared by adding ergothioneine to commercially available milk to final concentrations of 0.5 ppm, 1 ppm, 3 ppm, 5 ppm, 10 ppm, and 20 ppm.
as §3, with “milk” for “soy sauce”

C[N+](C)(C)[C@@H](Cc1c[nH]c(=S)[nH]1)C(=O)[O-] [ERG, Ergothioneine]
ERG added at which all the panelists evaluated that the sweetness was enhanced [1]: ≥ 0.5 ppm
ERG content at which all the panelists evaluated that the sweetness was enhanced [2]: ≥ 30 ppm
ERG content above which the degree of sweetness enhancement did not change ([2]; 345 ppm judged equivalent by a majority of the panelists): 145 ppm
ERG added at which all the panelists evaluated that the sweetness was enhanced [3]: ≥ 0.5 ppm
glucose solution of equivalent sweetness ([4]; three of the five panelists): 16%
glucose solution of equivalent sweetness ([4]; two of the five panelists): 17%
ERG added at which three panelists evaluated that the sweetness was enhanced [5]: ≥ 0.5 ppm
ERG having a sweetness-enhancing effect, based on the aspartame content [5]: ≥ 0.0005 % by weight
ERG added at which all the panelists evaluated that the sweetness was enhanced [6]: ≥ 10 ppm
sucrose solution of equivalent sweetness [7]: 0%
ERG added at which all the panelists evaluated that the sweetness was enhanced [8]: ≥ 0.5 ppm
ERG having a sweetness-enhancing effect, based on the glucose content [8]: ≥ 0.0001 % by weight
fructose solution of equivalent sweetness ([9]; three of the five panelists): 5.5%
fructose solution of equivalent sweetness ([9]; two of the five panelists): 5.25%
ERG added at which all the panelists evaluated that the sweetness was enhanced [10]: ≥ 0.5 ppm
sucrose solution of equivalent sweetness [11]: 2.5%
ERG content at which all the panelists evaluated that the sweetness was enhanced [12]: 5 ppm

Reference: EP4817428A1, “SWEETNESS ENHANCER CONTAINING ERGOTHIONEINE AS ACTIVE INGREDIENT, AND FOOD OR BEVERAGE PRODUCT CONTAINING SAME” (Kikkoman Corporation, priority 2023, dated 2025)
